Test results from ChEMBL document CHEMBL1153727, “Crotonkinensins A and B, diterpenoids from the Vietnamese medicinal plant Croton tonkinensis” (J Nat Prod, 2009).
Activity calls are given as the source filed them. The calls are words filed in the database; no cut-off is given here.

Columns and labels:
[1] = tested on: RAW264.7; test: Antiinflammatory activity in LPS-stimulated mouse RAW264.7 cells assessed as inhibition of beta-gal-tagged COX2 promoter activity pretreated 30 mins before LPS administration measured after 24 hrs by luciferase reporter gene assay relative to control; type: functional, cell-based
[2] = tested on: RAW264.7; test: Antiinflammatory activity in LPS-stimulated mouse RAW264.7 cells assessed as inhibition of COX2 protein expression at 10 to 100 uM pretreated 30 mins before LPS administration measured after 24 hrs by Western blot analysis; type: functional, cell-based

IC50 [1] [µM]	Compound	inhibition [1]	inhibition [2]
7.14	C=C1C(=O)[C@@]23[C@@H]4CC5=C(C(=O)CC5(C)C)[C@@](C)(O4)[C@@H]2CC[C@@H]1[C@H]3O [CROTONKINENSIN A]	Dose-dependent effect	Active
5.49	C=C1C(=O)[C@@]23[C@@H]4C[C@H]5C(=CCC5(C)C)[C@@](C)(O4)[C@@H]2CC[C@@H]1[C@H]3O [CROTONKINENSIN B]	Dose-dependent effect	Active
